The values that follow come from PMC10341573, “Design, Synthesis, and Biological Evaluation of Novel Quinazolin-4(3H)-One-Based Histone Deacetylase 6 (HDAC6) Inhibitors for Anticancer Activity” (International Journal of Molecular Sciences, 2023).

Broadly, the IC50 is the concentration at which inhibition is half-maximal.

Like-named read-outs stand apart in the source and are kept apart here.

The test system of one experiment is MCF7 and HCT-116 cells. Kind of experiment: Clonogenic assay. The settings on record: 12–14 days. It is filed as cell-based, human. As to the method:
To evaluate the effect of compound 5c on the cell survival of MCF7 and HCT-116 cells, a clonogenic assay was performed. Colony formation of MCF7 and HCT-116 cells was inhibited by compound 5c in a dose-dependent manner, compared to the control cells treated with DMSO (Figure 11).
MCF7 and HCT-116 cells were seeded in a six-well culture plate at a density of 500 cells/well. After cells adhered completely, they were incubated in the culture medium with DMSO, 0.1 μM 5c, and 1 μM 5c. The medium, along with the treatment, was replenished every 3 days for 12–14 days. The colonies formed were fixed with a 3:1 ratio of methanol and glacial acetic acid for 10 min. The wells were then washed with 1× PBS, and cells were stained with 0.5% v/v crystal violet solution for 10 min [55]. Excess stain was washed off in running water, and images were taken after proper drying. Colonies were counted visually or using ImageJ software, NIH (Version 1.53K). The stain taken up by the colonies was dissolved in 0.1% SDS, and absorbance was read at 540 nm. Graphs were plotted using GraphPad Prism 8.0.2.

In another experiment the test system is acetyl α-tubulin. The experiment is described as follows: Western blot of acetyl α-tubulin in MCF7 and HCT-116 cells. Conditions: 24 h. It is filed as cell-based, human. As to the method: HDAC6 plays a crucial role in chromatin modulation and deacetylation of α-tubulin, contributing to the expression of oncogenes driving tumorigenesis. Over time, numerous studies have shown HDAC inhibitors (HDACi) as potential anticancer therapeutics. The HDAC6-inhibitory effect of compound 5c was evaluated by analyzing the protein level expression of acetyl α-tubulin in MCF7 and HCT-116 cells treated with 5c by Western blotting.
(§1) On the basis of the results obtained from the cell proliferation assay, further experiments were conducted on MCF7 and HCT-116 cells treated with compound 5c. The cells were harvested, and 0.1 × 10^6 cells were seeded in a 12-well cell culture plate and allowed to adhere properly. The cells were then incubated with 0.1 μM and 1 μM concentrations of compound 5c for 24 h. Cells were pelleted in 1× PBS and lysed using ice-cold RIPA buffer. The protein concentration of the lysate was quantified using the Bradford assay and an equal concentration of sample proteins was run on 12% SDS-PAGE and transferred onto 0.45 μm PVDF membrane (Millipore (St. Louis, MO, USA), Immobilon IPVH00010). […]

The subject of the next experiment is B16. Kind of experiment: MTT cell proliferation assay, B16. It is filed as cell-based, murine. The settings on record: Mus musculus, B16; MTT, 72 h; mean ± SD, triplicate; read-out: IC50 ± SD B16.
The next experiment relates to HEK 293. Kind of experiment: MTT cell proliferation assay, HEK 293. It is filed as cell-based, human. Conditions: Homo sapiens, HEK293; MTT, 72 h; mean ± SD, triplicate; read-out: IC50 ± SD HEK 293. For orientation: Formazan colour is commonly taken as a measure of viable cells.
A further experiment has as its system MCF7. Kind of experiment: MTT cell proliferation assay, MCF7. It is filed as cell-based, human. The settings on record: MTT, 72 h, mean ± SD, triplicate, read-out: IC50 ± SD MCF7.
A further experiment concerns MCF7 cells. The experiment is described as follows: Annexin V–FITC/PI apoptosis assay by flow cytometry. It is filed as cell-based, human. Conditions: MCF7, 0.1 and 1 μM, 24 h. On the procedure: The efficacy of compound 5c to induce apoptosis was determined by annexin V–FITC/PI assay using flow cytometry. MCF7 cells were treated with two different concentrations of 5c as indicated, and the percentages of cells in the apoptotic and necrotic stage were analyzed, as depicted in Figure 8.
The apoptosis assay was performed using an annexin V–FITC Apoptosis detection kit (Sigma-Aldrich, APOAF) according to the manufacturer’s instructions. Cells were harvested, and 0.1 × 10^6 cells were seeded in a six-well cell culture plate and allowed to adhere followed by treatment with DMSO as the control and compound 5c at 0.1 μM and 1 μM concentrations for 24 h. The cells were trypsinized, pelleted down, and resuspended in the 1× buffer provided. The cells were stained using annexin V–FITC/PI and analyzed immediately using flow cytometry. Further analysis and plotting of graphs were conducted using Flowjo 7.6 [53].
On the technique in general: Flow cytometry measures light scatter and fluorescence of single cells or particles in a stream.

The test system of the next experiment is cleaved PARP. The experiment is described as follows: Western blot of cleaved PARP. It is filed as cell-based, human. Conditions: MCF7 and HCT-116 cells, compared to untreated cells.
From the text: The control had intact nuclei, as depicted by the green fluorescence due to AO binding to dsDNA, in contrast to the apoptotic nuclei of 5c-treated cells depicted by orange fluorescence due to AO staining of ssDNA and RNA. This observation was supported by the protein expression of cleaved poly (ADP-ribose) polymerase (PARP), which represents the degree of apoptosis in cells, as shown in Figure 9B. […] Acridine orange (AO) staining can also be influenced by autophagosomal pH.
as §1
A general note: In western blotting, separated proteins are transferred to a membrane and probed.

Turning to `Cc1ccc(-n2c(SCc3ccc(C(=O)NO)cc3)nc3ccccc3c2=O)cc1` [Compound 5c, N-hydroxy-4-(((4-oxo-3-(p-tolyl)-3,4-dihydroquinazolin-2-yl)thio)methyl)benzamide], the number of colonies result in the experiment on MCF7 and HCT-116 cells (MCF7 and HCT-116, 0.1 μM) is “significantly reduced”. In addition, in the experiment with MCF7 and HCT-116 cells (MCF7 and HCT-116, 1 μM), the “cell anchorage and growth” value is recorded as “almost completely arrested”. In addition, the “concentration at which heightened acetylation of α-tubulin starts” value in the experiment on acetyl α-tubulin was in the range of 0.1 to 1 µM. Moreover, the IC50 is 15 ± 3.34 µM in the experiment on B16; 35.1 ± 18.7 µM in the experiment with HEK 293; 13.7 µM in the experiment with MCF7 (Homo sapiens, MCF7, 72 h); 13.7 ± 0.83 µM with MCF7. In addition, the “state of cells with increase in concentration” value in the experiment with MCF7 cells was “late apoptosis and necrosis”. In the experiment on cleaved PARP, the “protein expression of cleaved PARP” value was “significantly higher”.
